Measurements: PubChem BioAssay (NCI)
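How tested: cells in 96-well plates exposed to compound for 48 hours at five concentrations. GI50 is the concentration that inhibits growth by half. TGI is the concentration that stops growth completely.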

Tests used:
Assay in all cases: NCI anticancer screen, dose series, 48 h
ACHN renal = test system: ACHN renal
BT-549 breast = test system: BT-549 breast
HS 578T breast = test system: HS 578T breast
K-562 leukemia = test system: K-562 leukemia
NCI/ADR-RES ovarian = test system: NCI/ADR-RES ovarian
RPMI-8226 leukemia = test system: RPMI-8226 leukemia
SNB-75 CNS = test system: SNB-75 CNS
T-47D breast = test system: T-47D breast
DLD-1 colon = test system: DLD-1 colon
DMS 114 small cell lung = test system: DMS 114 small cell lung
KM20L2 colon = test system: KM20L2 colon
LXFL 529 NSCLC = test system: LXFL 529 NSCLC
XF 498 CNS = test system: XF 498 CNS

Row | SMILES | TGI (ACHN renal) [µM] | TGI (BT-549 breast) [µM] | TGI (HS 578T breast) [µM] | TGI (K-562 leukemia) [µM] | TGI (NCI/ADR-RES ovarian) [µM] | TGI (RPMI-8226 leukemia) [µM] | TGI (SNB-75 CNS) [µM] | TGI (T-47D breast) [µM] | GI50 (ACHN renal) [µM] | GI50 (BT-549 breast) [µM] | GI50 (HS 578T breast) [µM] | GI50 (NCI/ADR-RES ovarian) [µM] | GI50 (RPMI-8226 leukemia) [µM] | GI50 (SNB-75 CNS) [µM] | GI50 (T-47D breast) [µM] | TGI (DLD-1 colon) [µM] | TGI (DMS 114 small cell lung) [µM] | TGI (KM20L2 colon) [µM] | TGI (LXFL 529 NSCLC) [µM] | TGI (XF 498 CNS) [µM]
1 | C=CC[N+]12CN3CN(CN(C3)C1)C2 | 46 | 61.3 | > 100 | > 100 | 62.7 | 39 | 48.1 | 76.5 | – | – | – | – | – | – | – | – | – | – | – | –
2 | O=c1ccc2nc(-c3ccccc3)nn(-c3ccccn3)c-2c1 | 3.17 | 56.8 | 98.8 | – | 67.1 | 63.1 | 26 | 6.79 | 1.7 | 20.8 | 23.4 | 19.6 | 5.32 | 13.2 | 2.03 | – | – | – | – | –
3 | O=C1c2ccccc2C(=O)c2c(Nc3ccc4c5c(cccc35)C(=O)c3ccccc3-4)cccc21 | > 100 | > 100 | > 100 | > 100 | > 100 | – | > 100 | > 100 | – | – | – | – | – | – | – | – | – | – | – | –
4 | N#CCCCC[N+]12CN3CN(CN(C3)C1)C2 | > 100 | > 100 | > 100 | > 100 | > 100 | > 100 | > 100 | > 100 | – | – | – | – | – | – | – | – | – | – | – | –
5 | CC(C)c1cc(CN(C)C)c(O)c(C(C)(C)C)c1 | 32.3 | > 100 | > 100 | – | > 100 | 32.3 | – | 58.1 | – | – | – | – | – | – | – | – | – | – | – | –
6 | O=C(CNc1cccc([N+](=O)[O-])c1)Nn1c(-c2ccccc2)nc2ccccc2c1=O | 3.34 | > 100 | 3.6 | – | 1.89 | 3.36 | – | 4.54 | – | – | – | – | – | – | – | – | – | – | – | –
7 | NC(=O)C(N)=O | > 100 | – | – | > 100 | – | > 100 | – | – | – | – | – | – | – | – | – | > 100 | > 100 | > 100 | > 100 | > 100
8 | Nc1nc(N)c2c(n1)NC(=O)c1c(c3ccccc3n1Cc1ccc(Cl)cc1)C2 | – | 49.2 | > 100 | > 100 | 85.6 | – | 69.2 | 43.9 | – | – | – | – | – | – | – | – | – | – | – | –
9 | N#CN=C(N)NC(=O)/C=C/C=C/c1ccc(Cl)cc1 | > 100 | – | – | > 100 | – | > 100 | 54.8 | – | – | – | – | – | – | – | – | > 100 | > 100 | > 100 | > 100 | –
10 | C#CCOc1c(C(=O)OCC)c(=O)n(C)c2ccccc12 | > 100 | – | – | > 100 | – | > 100 | > 100 | – | – | – | – | – | – | – | – | > 100 | > 100 | > 100 | > 100 | > 100
11 | CC(C)(C)N1C(C(=O)c2ccccc2)C1c1ccccc1 (stereo unspecified) | – | – | – | > 100 | – | > 100 | > 100 | – | – | – | – | – | – | – | – | > 100 | – | – | > 100 | –
12 | CCOC(=O)C12CCC(=O)C=C1[C@@H](C)C(=O)CC2 (stereo partly specified) | > 100 | – | – | – | – | > 100 | > 100 | – | – | – | – | – | – | – | – | > 100 | > 100 | > 100 | > 100 | > 100
13 | COc1ccc(C[C@H](N)C(=O)NC2C(CO)OC(n3cnc4c(N(C)C)ncnc43)C2O)cc1 (stereo partly specified) | – | – | – | 1.16 | – | 1.3 | 0.744 | – | – | – | – | – | – | – | – | – | 0.604 | – | 0.305 | 0.166
14 | COC(=O)Nc1nc2cc(OC)c(OC)cc2c(=O)[nH]1 | > 100 | > 100 | > 100 | > 100 | > 100 | – | 43.6 | > 100 | – | – | – | – | – | – | – | – | – | – | – | –
